According to PubChem BioAssay AID1963436 (Molecular Pharmacology Branch, DTP, NCI, 2024):

Tested on: OVCAR-5 complex spheroid (HUVEC/MSC), viability % T/C
Experiment: Anticancer human tumor OVCAR-5 cell line growth inhibition [Asc];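 note: spheroids exposed to agents for 7 days before readout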;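 for viability, T/C: 100% = DMSO vehicle-treated wells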
Conditions: for IC50: curve of first compound; for viability, T/C: stronger effect = lower value
How it was run: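 Complex spheroids combining tumor cells with HUVEC endothelial cells and human MSCs, at 37 degrees C, 5% CO2; agents tested alone or combined, half-log dilutions from at or near clinical Cmax, or 10 microM if Cmax unknown.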

[1] = second compound 0.1 µM, first compound 0.0316 µM
[2] = second compound 0.1 µM, first compound 0.1 µM
[3] = second compound 0.1 µM, first compound 0.316 µM
[4] = second compound 0.1 µM, first compound 1 µM
[5] = second compound 0.1 µM, first compound 3.16 µM
[6] = second compound 0.1 µM, first compound 10 µM
[7] = second compound 0.316 µM, first compound 0.0316 µM
[8] = second compound 0.316 µM, first compound 0.1 µM
[9] = second compound 0.316 µM, first compound 0.316 µM
[10] = second compound 0.316 µM, first compound 1 µM
[11] = second compound 0.316 µM, first compound 3.16 µM
[12] = second compound 0.316 µM, first compound 10 µM
[13] = second compound 1 µM, first compound 0.0316 µM
[14] = second compound 1 µM, first compound 0.1 µM
[15] = second compound 1 µM, first compound 0.316 µM
[16] = second compound 1 µM, first compound 1 µM
[17] = second compound 1 µM, first compound 3.16 µM
[18] = second compound 1 µM, first compound 10 µM
[19] = second compound 3.16 µM, first compound 0.0316 µM
[20] = second compound 3.16 µM, first compound 0.1 µM
[21] = second compound 3.16 µM, first compound 0.316 µM
[22] = second compound 3.16 µM, first compound 1 µM
[23] = second compound 3.16 µM, first compound 3.16 µM
[24] = second compound 3.16 µM, first compound 10 µM
[25] = second compound 10 µM, first compound 0.0316 µM
[26] = second compound 10 µM, first compound 0.1 µM
[27] = second compound 10 µM, first compound 0.316 µM
[28] = second compound 10 µM, first compound 1 µM
[29] = second compound 10 µM, first compound 3.16 µM
[30] = second compound 10 µM, first compound 10 µM

C=C(F)C(=O)N1CCN(c2nc(OCC3CCCN3C)nc3c2CCN(c2cccc4cccc(Cl)c24)C3)CC1CC#N (stereo not given) + Cc1c(S(C)(=O)=O)c(-c2cc(F)cc(N3CCN(c4ccc(NS(=O)(=O)c5ccc(NC(CCN6CCC(C(=O)OCCCP(=O)(O)O)CC6)CSc6ccccc6)c(S(=O)(=O)C(F)(F)F)c5)cc4)CC3)c2)c(-c2ccc(Cl)cc2)n1C(C)C
IC50 (second compound 0.1 µM): 0.799 µM
IC50 (second compound 0.316 µM): 0.587 µM
IC50 (second compound 1 µM): 0.649 µM
IC50 (second compound 3.16 µM): 0.561 µM
IC50 (second compound 10 µM): 0.643 µM
viability, T/C [1]: 88.7%
viability, T/C [2]: 96.8%
viability, T/C [3]: 79.9%
viability, T/C [4]: 43.7%
viability, T/C [5]: 1.2%
viability, T/C [6]: 0.31%
viability, T/C [7]: 93.5%
viability, T/C [8]: 98%
viability, T/C [9]: 78.3%
viability, T/C [10]: 25.4%
viability, T/C [11]: 1.91%
viability, T/C [12]: 0.12%
viability, T/C [13]: 81.5%
viability, T/C [14]: 89%
viability, T/C [15]: 83.3%
viability, T/C [16]: 29.9%
viability, T/C [17]: 0.65%
viability, T/C [18]: 0.74%
viability, T/C [19]: 90%
viability, T/C [20]: 92.3%
viability, T/C [21]: 80.1%
viability, T/C [22]: 19.6%
viability, T/C [23]: 0.82%
viability, T/C [24]: 0.14%
viability, T/C [25]: 111%
viability, T/C [26]: 131%
viability, T/C [27]: 106%
viability, T/C [28]: 15.1%
viability, T/C [29]: 0.46%
viability, T/C [30]: 0.21%

C=CC(=O)N1CCN(c2nc(=O)n(-c3c(C)ccnc3C(C)C)c3nc(-c4c(O)cccc4F)c(F)cc23)C(C)C1 (stereo not given) + Cc1c(S(C)(=O)=O)c(-c2cc(F)cc(N3CCN(c4ccc(NS(=O)(=O)c5ccc(NC(CCN6CCC(C(=O)OCCCP(=O)(O)O)CC6)CSc6ccccc6)c(S(=O)(=O)C(F)(F)F)c5)cc4)CC3)c2)c(-c2ccc(Cl)cc2)n1C(C)C
IC50 (second compound 0.1 µM): > 10 µM
IC50 (second compound 0.316 µM): > 10 µM
IC50 (second compound 1 µM): > 10 µM
IC50 (second compound 3.16 µM): > 10 µM
IC50 (second compound 10 µM): > 10 µM
viability, T/C [1]: 100%
viability, T/C [2]: 109%
viability, T/C [3]: 98.7%
viability, T/C [4]: 111%
viability, T/C [5]: 114%
viability, T/C [6]: 97.5%
viability, T/C [7]: 93.4%
viability, T/C [8]: 103%
viability, T/C [9]: 95.5%
viability, T/C [10]: 96.9%
viability, T/C [11]: 112%
viability, T/C [12]: 102%
viability, T/C [13]: 89.8%
viability, T/C [14]: 101%
viability, T/C [15]: 111%
viability, T/C [16]: 98.2%
viability, T/C [17]: 97.5%
viability, T/C [18]: 106%
viability, T/C [19]: 95.4%
viability, T/C [20]: 102%
viability, T/C [21]: 109%
viability, T/C [22]: 103%
viability, T/C [23]: 108%
viability, T/C [24]: 98.1%
viability, T/C [25]: 119%
viability, T/C [26]: 136%
viability, T/C [27]: 142%
viability, T/C [28]: 139%
viability, T/C [29]: 144%
viability, T/C [30]: 145%

CCN1C(C(=O)NC23CCC(C(=O)O)(CC2)CC3)C(c2cccc(Cl)c2F)C2(C(=O)Nc3cc(Cl)ccc32)C12CCCCC2 (stereo not given) + Cc1c(S(C)(=O)=O)c(-c2cc(F)cc(N3CCN(c4ccc(NS(=O)(=O)c5ccc(NC(CCN6CCC(C(=O)OCCCP(=O)(O)O)CC6)CSc6ccccc6)c(S(=O)(=O)C(F)(F)F)c5)cc4)CC3)c2)c(-c2ccc(Cl)cc2)n1C(C)C
IC50 (second compound 0.1 µM): > 3 µM
IC50 (second compound 0.316 µM): > 3 µM
IC50 (second compound 1 µM): > 3 µM
IC50 (second compound 3.16 µM): > 3 µM
IC50 (second compound 10 µM): > 3 µM
viability, T/C (second compound 0.1 µM, first compound 0.00949 µM): 102%
viability, T/C (second compound 0.1 µM, first compound 0.03 µM): 93.8%
viability, T/C (second compound 0.1 µM, first compound 0.0949 µM): 93.1%
viability, T/C (second compound 0.1 µM, first compound 0.3 µM): 86.9%
viability, T/C (second compound 0.1 µM, first compound 0.949 µM): 97.3%
viability, T/C (second compound 0.1 µM, first compound 3 µM): 92.5%
viability, T/C (second compound 0.316 µM, first compound 0.00949 µM): 86.3%
viability, T/C (second compound 0.316 µM, first compound 0.03 µM): 101%
viability, T/C (second compound 0.316 µM, first compound 0.0949 µM): 90.2%
viability, T/C (second compound 0.316 µM, first compound 0.3 µM): 82.8%
viability, T/C (second compound 0.316 µM, first compound 0.949 µM): 91.3%
viability, T/C (second compound 0.316 µM, first compound 3 µM): 83.3%
viability, T/C (second compound 1 µM, first compound 0.00949 µM): 88%
viability, T/C (second compound 1 µM, first compound 0.03 µM): 85.5%
viability, T/C (second compound 1 µM, first compound 0.0949 µM): 88.5%
viability, T/C (second compound 1 µM, first compound 0.3 µM): 86.9%
viability, T/C (second compound 1 µM, first compound 0.949 µM): 75.4%
viability, T/C (second compound 1 µM, first compound 3 µM): 83%
viability, T/C (second compound 3.16 µM, first compound 0.00949 µM): 84.7%
viability, T/C (second compound 3.16 µM, first compound 0.03 µM): 92.4%
viability, T/C (second compound 3.16 µM, first compound 0.0949 µM): 97.4%
viability, T/C (second compound 3.16 µM, first compound 0.3 µM): 78.7%
viability, T/C (second compound 3.16 µM, first compound 0.949 µM): 74.1%
viability, T/C (second compound 3.16 µM, first compound 3 µM): 69.3%
viability, T/C (second compound 10 µM, first compound 0.00949 µM): 114%
viability, T/C (second compound 10 µM, first compound 0.03 µM): 122%
viability, T/C (second compound 10 µM, first compound 0.0949 µM): 126%
viability, T/C (second compound 10 µM, first compound 0.3 µM): 111%
viability, T/C (second compound 10 µM, first compound 0.949 µM): 102%
viability, T/C (second compound 10 µM, first compound 3 µM): 89.8%

CNC(C)C(=O)NC1CN(S(=O)(=O)c2cccc(S(=O)(=O)N3CCC4CCC(C(=O)NC(c5ccccc5)c5ccccc5)N4C(=O)C(NC(=O)C(C)NC)C3)c2)CCC2CCC(C(=O)NC(c3ccccc3)c3ccccc3)N2C1=O (stereo not given) + Cc1c(S(C)(=O)=O)c(-c2cc(F)cc(N3CCN(c4ccc(NS(=O)(=O)c5ccc(NC(CCN6CCC(C(=O)OCCCP(=O)(O)O)CC6)CSc6ccccc6)c(S(=O)(=O)C(F)(F)F)c5)cc4)CC3)c2)c(-c2ccc(Cl)cc2)n1C(C)C
IC50 (second compound 0.1 µM): > 1 µM
IC50 (second compound 0.316 µM): > 1 µM
IC50 (second compound 1 µM): > 1 µM
IC50 (second compound 3.16 µM): > 1 µM
IC50 (second compound 10 µM): > 1 µM
viability, T/C (second compound 0.1 µM, first compound 0.00316 µM): 97.7%
viability, T/C (second compound 0.1 µM, first compound 0.01 µM): 91.1%
viability, T/C [1]: 83.2%
viability, T/C [2]: 79.3%
viability, T/C [3]: 85.2%
viability, T/C [4]: 76.1%
viability, T/C (second compound 0.316 µM, first compound 0.00316 µM): 96.2%
viability, T/C (second compound 0.316 µM, first compound 0.01 µM): 87.7%
viability, T/C [7]: 78%
viability, T/C [8]: 77.8%
viability, T/C [9]: 74.8%
viability, T/C [10]: 81%
viability, T/C (second compound 1 µM, first compound 0.00316 µM): 90.7%
viability, T/C (second compound 1 µM, first compound 0.01 µM): 86.9%
viability, T/C [13]: 78.8%
viability, T/C [14]: 75.2%
viability, T/C [15]: 67.1%
viability, T/C [16]: 75%
viability, T/C (second compound 3.16 µM, first compound 0.00316 µM): 89.1%
viability, T/C (second compound 3.16 µM, first compound 0.01 µM): 94.3%
viability, T/C [19]: 83%
viability, T/C [20]: 68.1%
viability, T/C [21]: 71.5%
viability, T/C [22]: 81.6%
viability, T/C (second compound 10 µM, first compound 0.00316 µM): 119%
viability, T/C (second compound 10 µM, first compound 0.01 µM): 130%
viability, T/C [25]: 121%
viability, T/C [26]: 99.8%
viability, T/C [27]: 108%
viability, T/C [28]: 96.8%
